One assay concerns Human RSV-A (“Long” strain). Nature of the assay: RSV-A in vitro cytoprotection assay in HEp-2 cells (ATPlite readout). It is filed as cell-based, Human respiratory syncytial virus. Particulars: HEp-2 cells, 4-day incubation, ATPlite cell viability; read-out: Human RSV-A (“Long” strain) EC50. An excerpt:
RSV is a single stranded negative sense RNA virus that causes respiratory tract infections which can be dangerous to infants, the elderly, and immunosuppressed individuals. Currently there is no vaccine, and therapeutic options are both costly and of limited effectiveness. These approved treatments are Ribavirin, and Palivizumab/Synagis (a monoclonal antibody). RSV has two genotypes, A and B, which differ primarily in the structure of the virus' surface “G” attachment protein. Our current primary screen focusses on RSV-A and uses an in vitro cytoprotection assay where compounds are added in 2-fold dilutions to cells which are then subjected to fully replicative viral particles. Cell viability is measured several days later along with separate measurements of compound cytotoxicity. This report focuses on the results of our most recent screening of compounds.
HEp-2 cells, (originally derived from tumors grown in irradiated-cortisonised weanling rats that had been injected with epidermoid carcinoma tissue from a person's larynx, but later found to be indistinguishable from HeLa cells by PCR DNA analysis), were used for the culturing of genotype A, “Long” strain RSV. Flasks were inoculated with RSV and viral stocks were collected once cytopathic effect (CPE) was greater than 90%. Viral stocks in 25% sucrose media were snap frozen using liquid nitrogen to increase viral stability. Viral stock titers were quantified by tissue culture infectious dose 50% (TCID50) using 8,000 cells per well and 3-fold viral dilutions across a 96-well plate, cultured for 4 days.
Following extensive parameter testing, the final assay is run as follows: HEp-2 cells are seeded into the inner 60 wells of a 96-well plate at 8,000 cells per well in a volume of 50 μL using Growth Media (DMEM without phenol red, 1% L-Glut, 1% Penn/Strep, 1% nonessential amino acids, 10% FBS). 2-fold serial dilutions of control and test compounds are added to the wells in duplicate in a total volume of 25 μL. Viral stock is then added to the wells in a volume of 25 μL, bringing the total volume of each well to 100 μL. Each 96-well plate has a control column of 6 wells with cells and virus but no compound (negative control, max CPE), a column with cells but no compound or virus (positive control, minimum CPE), and a column with no cells or virus or compound (background plate/reagent control). The control wells with cells but no virus are given an additional 25 uL of growth media containing an equal quantity of sucrose as those wells receiving the viral stock in order to keep consistent in media and volume conditions. The outer wells of the plate are filled with 125 μL of growth media to act as a thermal and evaporative moat around the test wells. Following a 4-day incubation period, the plates are read using ATPlite (50 uL added per well), which quantifies the amount of ATP (a measure of cell health) present in each well. Assay plates are read using the Envision luminometer. […] EC50 ranges are as follows: A<0.4 μM; B 0.4-0.8 μM; C>0.8 μM.
For orientation: Cellular ATP, detected with luciferase, serves as a proxy for viable cell number.
For orientation: EC50 means the concentration needed to bring the measured effect to its halfway point. `Cc1cc2c(s1)NC(=O)[C@@H](Nc1nnc(-c3ncc(C(F)(F)F)cc3N3CCOCC3)o1)N=C2c1ccccc1` [Example 6]: the EC50 was below 400 nM.

Turning to `Cc1sc2c(c1C)C(c1ccccc1)=N[C@H](Nc1nnc(-c3ncc(C(F)(F)F)cc3N3CCOCC3)o1)C(=O)N2` [Example 8], the EC50 was 400 to 800 nM.

Staying with this assay, now noted: human respiratory syncytial virus, HEp-2, 96 h, read-out: Human RSV-A (“Long” strain) EC50.
Regarding `O=C1Nc2cccnc2C(c2ccccc2)=NC1Nc1nnc(-c2ccccc2)o1` (stereo not shown) [Example 1], the EC50 is above 800 nM.

`O=C1Nc2ncccc2C(c2ccccc2)=NC1Nc1nnc(-c2ccc(F)cc2)o1` (stereo not shown) [Example 2]: the EC50 was above 800 nM.

Regarding `O=C1Nc2cnccc2C(c2ccccc2)=NC1Nc1nnc(-c2ccc(F)cc2)o1` (stereo not shown) [Example 3], the 50% effective concentration (EC50) was above 800 nM.

Take `O=C1Nc2ccsc2C(c2ccccc2)=NC1Nc1nnc(-c2ncc(C(F)(F)F)cc2N2CCOCC2)o1` (stereo not shown) [Example 4]: the EC50 fell in the range of 400 to 800 nM.

Turning to `O=C1Nc2sccc2C(c2ccccc2)=NC1Nc1nnc(-c2ncc(C(F)(F)F)cc2N2CCOCC2)o1` (stereo not shown) [Example 5], the half-maximal effective concentration (EC50) is 400 to 800 nM.
